Experimental findings from the METLIN SMRT retention time set (Domingo-Almenara et al. 2019) are described below.

The nature of the series: gradient 5% acetonitrile 3 min, to 50% in 2 min, to 85% in 15 min, held 3 min, 100 µL/min. To be noted: column: Zorbax Extend-C18 2.1 x 50 mm; eluents: water / acetonitrile, 0.1% formic acid. In outline: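 Over 3 months, pure standards in mixtures of ~100 molecules were run by HPLC coupled to a quadrupole time-of-flight mass spectrometer in positive and negative ionization mode. The column was a Zorbax Extend-C18 (2.1 × 50 mm, 1.8 μm) at 100 μL/min, eluted with water and acetonitrile each holding 0.1% formic acid, with 40 μL dead and 900 μL dwell volumes. Retention time was determined from adduct peaks chosen by software and checked manually.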
`Cc1ccc(NC(=O)N2CC(c3nc(C)no3)C3(CCOCC3)C2)c(C)c1` (centres undefined) yielded an RP-LC retention time of 731 s.
For `CSc1ccc(-c2nc3ccccn3c2Nc2ccccc2C)cc1` the value was 794 s; for `Cn1c(=O)n(CCCC#N)c2cncnc21`, 550 s.
The result for `Cc1ccc(OCC(=O)NC[C@@]23CCC[C@H]2N(C)C(=O)CC3)cc1` reads 674 s; that for `CCOc1ccc(NC(=O)N2CCCC(C)(C(=O)NCc3cccc(OC)c3)C2)cc1` (centres undefined), 872 s.
For `COc1cc(C(=O)N2CCN(c3cc(-c4cccs4)[nH]n3)CC2)cc(OC)c1OC` the value was 699 s; for `O=C(c1ccncc1)N1CC(N(Cc2ccncc2)CC2CC2)C1`, 519 s.
`COc1ccc(-c2noc(-c3nn(-c4ccc(F)c(F)c4)ccc3=O)n2)cc1OC` came in with an RP-LC retention time of 835 s.
The result for `CC(C)c1nc2c(c(=O)n1CC(=O)Nc1ccccc1)CCN(Cc1ccccc1)C2` reads 674 s.
The result for `Cc1ccsc1C(=O)N1CC(Oc2ccc(-c3nc(-c4ccccc4)no3)cc2)C1` reads 1250 s; that for `O=C(Nc1ccc2c(c1)OCO2)C(=O)c1cn(CC(=O)N2CCCCC2)c2ccccc12`, 1000 s; that for `CCN1CCCn2cc(S(=O)(=O)Nc3ccc(C)c(C)c3)cc2C1=O`, 778 s.
The result for `CCCN(CCC)CC(=O)N1CC(=O)Nc2ccccc21` reads 617 s; that for `O=S(=O)(c1ccc2nncn2c1)N(Cc1cc(F)cc(F)c1)c1cccc(F)c1`, 895 s.
Take `COCC1CN(C(=O)CN2CCCC2=O)CCC1(F)F` (centres undefined): the RP-LC retention time worked out at 598 s.
The result for `Cc1nn2c(CNS(=O)(=O)Cc3cccc(Cl)c3)c(-c3ccccc3)nc2s1` reads 978 s; that for `CCc1ccccc1NC(=O)Cn1c(N2CCOCC2)nc(C)cc1=O`, 674 s; that for `COc1ccc(C(=O)c2c(N)c(C#N)c3ccccn23)cc1`, 777 s.
In the case of `O=C(NCC1CCCO1)C1CCN(c2nnc(-c3ccccc3)o2)CC1` (centres undefined), the RP-LC retention time worked out at 649 s.
For `COc1ccc(C)cc1Nc1ncnc(N)c1[N+](=O)[O-]` the value was 780 s; for `Cc1cccc(-c2nc3sc(N4CCCCC4)nn3c2NC(=O)c2ccnn2C)c1`, 885 s.
Consider `CSc1ccccc1NC(=O)C(=O)NCC1CCN(Cc2cc(C)oc2C)CC1`, for which the RP-LC retention time worked out at 615 s.
The result for `c1ccc(-c2nc(C3CCOCC3)no2)c(OC2CCN(C3CCCC3)C2)c1` (centres undefined) reads 661 s.
The result for `COc1ccc(OC)c(S(=O)(=O)N2CCCC(C(=O)NC(C)C)C2)c1` (centres undefined) reads 714 s; that for `CCN1CCN(Cc2ccc(C(=O)NCc3ccc(C(F)(F)F)cc3)cc2)C(=O)C1=O`, 744 s; that for `Cn1cc(-c2ccncc2)cc1C(=O)NCc1ccc(F)c(Cl)c1`, 664 s.
The result for `CC(C)n1nnc2cc(S(=O)(=O)N(C)CC(=O)N3CCN(c4ccccn4)CC3)ccc21` reads 607 s.
Regarding `CC[C@@]1(O)C(=O)OCc2c1cc1n(c2=O)Cc2cc3c(NC(=O)CN)cccc3nc2-1`, the RP-LC retention time was determined as 626 s.
The result for `Cc1nc2c(ccc3nc(NC(=O)c4ccc(Cl)s4)sc32)s1` reads 986 s.
For `CC1(C)Cc2cccc(OCc3ccc(C(=O)NCc4ccccn4)cc3)c2O1`, the RP-LC retention time was determined as 663 s.
The result for `CNC(=O)c1cc(N(C)C)nc2c(C)cccc12` reads 557 s.
With `O=C(Cn1c(Cc2ccc(Cl)cc2)nc2ccccc21)N1CCCCCC1`, the RP-LC retention time turned out to be 739 s.
The result for `COc1ccc(-c2noc(C3CCCN3C(=O)Nc3ccc(OC)c(OC)c3)n2)cc1` (centres undefined) reads 952 s; that for `CC(=O)N1CCc2cc(N3CC(C(=O)Nc4ccc(Cl)cc4)CC3=O)ccc21` (centres undefined), 750 s.
The result for `CN(C)C(=O)c1csc(S(=O)(=O)N2CCC(C(=O)Nc3ccc(F)cc3Cl)CC2)c1` reads 792 s.
`OC(CN1CCN(c2ncccn2)CC1)c1ccc(Cl)cc1` (centres undefined) returned an RP-LC retention time of 614 s.
`Cc1cccc(N2CCN(C(=O)COc3ccc(NC(=O)C4CC4)cn3)CC2)c1` showed an RP-LC retention time of 754 s.
For `Cc1cccc(C)c1OCC(=O)N(Cc1ccc(Br)o1)C1CCS(=O)(=O)C1` (centres undefined) the value was 960 s; for `CC1CCN(c2nn(CC(=O)Nc3ccccc3F)c(=O)c3ccccc23)CC1`, 1090 s; for `COC(=O)c1ncn2c1C(=O)N(Cc1ccc(C)cc1)C(C)(C(=O)NCc1ccccc1)C2` (centres undefined), 747 s.
The result for `CCCn1c(CCc2ccccc2NS(=O)(=O)CCC)nc2ccccc21` reads 708 s; that for `CCn1ccc(C(=O)N2CCCN(C3=NS(=O)(=O)C(c4ccc(C)cc4)=C3C)CC2)n1`, 790 s; that for `Cc1onc(-c2c(Cl)cccc2Cl)c1C(=O)N1CCN(C)CC1`, 609 s.
The result for `CCOC(=O)c1ccc(NC(=O)COc2cc(C)nc(N3CCN(c4ccccc4)CC3)n2)cc1` reads 864 s; that for `CCn1cc(-c2nc(C)c(C(=O)Nc3ccc(OC)cc3OC)s2)c2cccnc21`, 1050 s.
Take `O=C(c1cn(-c2ccc(S(=O)(=O)N3CCOCC3)cc2)cn1)N1CCN(c2ccccn2)CC1`: the RP-LC retention time amounted to 598 s.
For `COc1ccc(-c2cc3c(=O)n(Cc4nc(-c5ccccc5OC)oc4C)ccn3n2)cc1` the value was 975 s; for `O=S(=O)(NCC1CCN(Cc2ccco2)CC1)c1ccc(F)c(Cl)c1`, 575 s.
For `COc1ccc(-c2cn3c(C(=O)Nc4ccc5c(c4)OCCO5)csc3n2)cc1` the value was 813 s.
For `COc1cccc(Nc2nc(C)c(C(=O)Nc3ccc(F)c(Cl)c3)s2)c1` the value was 1060 s.
The compound `CCc1c(C2CCN(C(=O)NCCc3ccccc3)CC2)noc1N` had an RP-LC retention time of 732 s.
The result for `CCOc1ccc(-c2noc(Cn3ncn4nc(-c5ccc(OC)cc5)cc4c3=O)n2)cc1OC` reads 1040 s; that for `CCn1c(N2CCN(C(=O)Nc3cc(OC)c(OC)c(OC)c3)CC2)nc2ccccc21`, 623 s; that for `CC1(C)CS(=O)(=O)N(c2ccc(C(=O)NCCc3c[nH]c4ccccc34)cc2)C1=O`, 825 s.
`CCn1c(=O)c(NCc2ccc(F)cc2Cl)nc2ccncc21` registered an RP-LC retention time of 661 s.
Regarding `Cn1nccc1-c1csc(S(=O)(=O)NC2CCCCC2)c1`, the RP-LC retention time is 877 s.
The result for `Clc1ccc(C2(c3ccc(-c4cn[nH]c4)cc3)CCNCC2)cc1` reads 680 s; that for `COCCn1cc(CCNC(=O)Nc2ccccc2Cl)c2cccnc21`, 752 s.
The result for `Cc1ccc(C)c(-c2coc(-c3ccc(NC(=O)Cc4cccs4)cc3)n2)c1` reads 1230 s; that for `Cc1cccc(N(C)C(=O)C2CCCN2S(=O)(=O)c2cc3c(cc2C)NC(=O)CO3)c1` (centres undefined), 776 s.
For `Cc1ccc2[nH]cc(CCN3CC(C(=O)NCc4ccc5c(c4)OCO5)CC3=O)c2c1` (centres undefined) the value was 770 s; for `COc1ccc(-c2nnc(-c3cccnc3N3CCC4(CC3)OCCO4)o2)cc1`, 875 s.
In turn, `CCOc1ccccc1CNC(=O)c1ccc2c(c1)NC(=O)C1CCCCN21` (centres undefined) returned an RP-LC retention time of 876 s.
`CCn1ccc2cc(S(=O)(=O)N3CCCC(C(=O)NCCCN4CCCCC4)C3)ccc21` (centres undefined) showed an RP-LC retention time of 676 s.
The result for `CCCN1C(=O)c2cc(C(=O)NCc3cccc(C)c3)nn2CC1(C)C(=O)NC1CCCC1` (centres undefined) reads 866 s; that for `COc1ccc(-c2nc3cnccn3c2Nc2ccc(C(=O)NC3CCCCC3)cc2)cc1`, 798 s.
For `Cc1ccc(NS(=O)(=O)c2c(C)sc(C)c2-c2cc(C(F)(F)F)on2)c(C)c1` the value was 1240 s; for `Cc1sc(NC(=O)CN(C)S(C)(=O)=O)c(C#N)c1C`, 719 s.
For `O=S(=O)(c1cccs1)N1CCc2nc(-c3ccccc3)ncc2C1` the value was 992 s; for `Cc1ccc(-n2cc(C3=CCN(CC(=O)NC4CCN(Cc5ccccc5)CC4)CC3)cn2)cc1`, 551 s; for `CCOCCCNC(=O)C1CCN(c2nccnc2Oc2cccc(C)c2)CC1`, 861 s.
In the case of `Cn1ncc2c3ccccc3n(CC(=O)N3CCN(c4ccc(F)cc4)CC3)c2c1=O`, the RP-LC retention time turned out to be 875 s.
The result for `CO[C@H]1C(=O)N(C2CCN(S(=O)(=O)c3ccc4c(c3)CCC4)CC2)[C@H]1c1ccncc1` reads 704 s; that for `Cc1cc(C)n2nc(SCC(=O)Nc3cccc(Cl)c3)nc2n1`, 789 s; that for `Cc1nnc(N2CCN(C(=O)Nc3ccc4c(c3)OCCO4)CC2)c2nn(-c3ccccc3)c(C)c12`, 679 s.
With `CCOC(=O)C1CCC(CNC(=O)N2CCCn3nc(-c4cccnc4)cc3C2)CC1` (centres undefined), the RP-LC retention time came to 629 s.
For `CSc1cccc(NC(=O)N2CC(c3nc(C)no3)C3(CCOCC3)C2)c1` (centres undefined) the value was 760 s; for `C[C@H]1CN(C(=O)c2ccc(C#N)cc2)C[C@@H]1c1nc(-c2ccncc2)no1`, 717 s.
The result for `Cc1oc(-c2[nH]ncc2C(=O)N2CCOCC2)cc1S(=O)(=O)NCC(C)C` reads 645 s.
